Earlier results in US20080213362A1, “COMPOSITIONS AND METHODS USING TORSEMIDE” (priority 2007, published 2008).

How the values were obtained:
[1] = 2.5 mg once daily
[2] = diabetic or pre-diabetic patient, even during treatment with an anti-diabetic agent

In the case of Cc1cccc(Nc2ccncc2S(=O)(=O)NC(=O)NC(C)C)c1 [torsemide], the anti-hypertensive effects [1] is listed as “statistically significant anti-hypertensive effects” and the “effect on blood sugar levels” value [2] is listed as “worsen blood sugar levels”.
